Data on one molecule can be found in US4981950A, “Vasoconstrictor peptide” (Takeda Chemical Ind., Ltd., priority 1987, dated 1991).

Each structure is given as a SMILES string.

The subject of assay [1] is porcine right coronary artery. Put plainly: Assay of vascular smooth muscle constrictor activity (isometric tension of intima-denuded artery spiral specimens). Particulars: assay (1); purified compound I from porcine aortic endothelial cell culture supernatant; Krebs-Ringer solution, 37° C. As to the method:
Porcine right coronary artery spiral specimens (2×20 mm) with the intima denuded by rubbing with a small swab are suspended in 3 ml of Krebs-Ringer solution maintained at 37° C. and saturated with the mixed gas containing 5% carbon dioxide and 95% oxygen by volume. After setting the basal tension to 1 g, the isometric tension is measured with tension transducers.
(§1) The activity of the compound I obtained in 2 (iii) above was assayed by the method of Reference Example (1) and (2).

In assay [2] the test system is guinea pig right atrium. Nature of the assay: Assay of cardiotonic action (tension and heart rate of suspended right atrium specimens). The settings on record: assay (2); purified compound I from porcine aortic endothelial cell culture supernatant. On the procedure: Instead of the porcine right coronary artery spiral specimens used in the assay described in the above item (1), guinea pig right atrium suspended specimens are used, and the tension and the heart rate per minute are measured according to the same procedure as described in (1). (3) ED50
as §1

`CC[C@H](C)[C@H](NC(=O)[C@H](CC(=O)O)NC(=O)[C@H](CC(C)C)NC(=O)[C@H](Cc1c[nH]cn1)NC(=O)[C@@H]1CSSC[C@H](N)C(=O)N[C@@H](CO)C(=O)N[C@H]2CSSC[C@H](NC(=O)[C@H](CCC(=O)O)NC(=O)[C@H](CCCCN)NC(=O)[C@H](CC(=O)O)NC(=O)[C@H](CCSC)NC(=O)[C@H](CC(C)C)NC(=O)[C@H](CO)NC(=O)[C@H](CO)NC2=O)C(=O)N[C@@H](C(C)C)C(=O)N[C@@H](Cc2ccc(O)cc2)C(=O)N[C@@H](Cc2ccccc2)C(=O)N1)C(=O)N[C@H](C(=O)N[C@@H](Cc1c[nH]c2ccccc12)C(=O)O)[C@@H](C)CC` [compound I]: the “ED50 for smooth muscle constrictor activity to porcine coronary artery” value in assay [1] is 4 to 5×10^-10 mole/l. In assay [2], the “ED50 for cardiotonic action to guinea pig right atrium” value stood at 1 nM.
